{
  "source": "paper PMC6831736",
  "about": "“Highly Variable Pharmacokinetics of Tyramine in Humans and Polymorphisms in OCT1, CYP2D6, and MAO-A” (Frontiers in Pharmacology, 2019)",
  "key": {"[1]": {"assay": "Pharmacokinetics of tyramine and its metabolite 4-HPAA in plasma and urine of healthy volunteers after oral administration of 400 mg tyramine", "protocol": "In this open-label pharmacokinetic/pharmacodynamic study, pharmacokinetics and effects of 400 mg oral tyramine were analysed in relation to MAO-A, CYP2D6, and OCT1 genotypes in 88 healthy volunteers. Eighty percent of the participants were unselected volunteers from Göttingen area in Germany; the remaining 20% were selected from an internal database to enrich the study sample with rare OCT1 or CYP2D6 variants. With widely accepted statistical criteria (type I error of 0.05 and type II error of 0.2), at least 10 subjects with genetically defined very low activity of OCT1 or CYP2D6 and a similar or higher number without deficiency should be sufficient to confirm a relevant 50% change in tyramine plasma AUC as a result of genetic variation. Because of the very diverse and not pharmacokinetic-based literature data on the functional effects of MAO-A polymorphisms, no power calculation could be performed with regard to MAO-A genotypes. However, a sample size of nearly a hundred individuals should be sufficient to find genotypes with a population frequency of at least 5%. All volunteers gave their written informed consent before participation in the study. The study was approved by the ethics committee of the University of Göttingen. It was registered at the German Clinical Trials Registry and the World Health Organization International Clinical Trials Registry Platform (DRKS00008915; https://www.drks.de/DRKS00008915).\nPlasma and urine concentrations of tyramine and 4-HPAA were analysed by HPLC with tandem mass spectrometry using tyramine-d4 (Santa Cruz Biotechnology, Inc., Dallas, TX, USA) as internal standard. GR 49336 (5-[[(methylamino)sulfonyl]methyl]-1H-indole-3-acetic acid; Santa Cruz Biotechnology, Inc.) was used as internal standard for 4-HPAA. The analytical standards for tyramine were obtained from Fluka (Morristown, NJ, USA) and for 4-HPAA from Sigma-Aldrich (Darmstadt, Germany). The limit of detection for tyramine was 0.1 ng/ml in plasma and 10 ng/ml in urine; for 4-HPAA, it was 5 ng/ml in plasma and 0.5 µg/ml in urine. The limit of quantification for tyramine was 0.25 ng/ml in plasma and 15 ng/ml in urine; for 4-HPAA, it was 15 ng/ml in plasma and 1.5 µg/ml in urine.\n200 µl of plasma were precipitated in 1.5 ml Eppendorf tubes with 400 µl acetonitrile/methanol (9:1, v:v), including the internal standards. After 10 min on ice, tubes were centrifuged for 30 min at 13,000 rpm, and 300 µl of the supernatant were transferred to a microtiter plate. The supernatant was evaporated using nitrogen and re-dissolved in 0.1% formic acid. 10 µl were injected into the HPLC system. Chromatography was performed using a Shimadzu Nexera system with an API 4000 detector. Separation for analysis of tyramine and methyltyramine was performed at 40°C on a Brownlee SPP RP-Amide 100 x 4.6 mm, 2.7 µm particle size, column using water with 0.1% (v/v) formic acid, 2.57% acetonitrile, and 0.43% methanol as eluent. Detection (positive mode) of tyramine was based on the masses 139.1/121.1 and for tyramine-d4 on 142.0/125.0. Calibration range was 0.5 to 200 µg/l with coefficients of variation of 4.6%, 2.8%, and 2.6% at 2, 20, and 150 µg/l, respectively. Analysis of 4-HPAA was performed on the same system, using 0.1% formic acid, 17.14% acetonitrile, and 2.86% methanol as eluent and detection in the negative mode based on the masses 151.0/107.2 for 4-HPAA and 281.2/142.1 for the internal standard. Calibration range was between 0.03 and 20 mg/l and coefficients of variation were 4.7%, 4.2%, and 3.7% at 1, 5, and 15 mg/l.\nPharmacokinetic parameters were calculated by non-compartmental analysis using Phoenix 64 WinNonlin version 6 (Certara USA, Inc., Princeton NJ, USA). AUCinf of tyramine was calculated from time of dosing using the linear/log trapezoidal rule, and extrapolated to inﬁnity based on the last predicted concentration and using the terminal elimination rate constant (lambda z)."}, "healthy volunteers [2]": {"tested_on": "healthy volunteers", "assay": "Blood pressure and heart rate effects after 400 mg oral tyramine", "type": "in vivo, human", "from_the_text": "Purity was confirmed by HPLC."}, "[3]": {"tested_on": "organic cation transporter 1 (OCT1, or SLC22A1)", "design": "method as in Breidert et al., 1998", "settings": "ref Breidert et al., 1998; cited from earlier work"}, "[4]": {"design": "method as in earlier work", "settings": "fasting state; upwards; ref VanDenBerg et al., 2003; Di Stefano et al., 2013; Gillman, 2018; cited from earlier work"}, "healthy volunteers [5]": {"tested_on": "healthy volunteers", "assay": "Adverse events, adverse symptoms (visual analogue scales) and pupillometry after 400 mg oral tyramine", "description": "(§1) To avoid interference by dietary tyramine, food and drink (including alcohol) consumption was prohibited from the evening before the study day until the last blood and urine sampling, except for water at any time and bread with butter 3 h before and 3 h after tyramine administration. A medical examination and electrocardiogram measurement were conducted 3 h prior to tyramine administration. Blood samples were drawn 3 h before and at the following times after tyramine intake: 15, 30, and 45 min as well as 1, 1.5, 2, 2.5, 3, 4, and 6 h. Urine samples were taken from 3 h to 10 min before tyramine administration as well as from 0 to 3 h and from 3 to 6 h after. Blood samples were centrifuged (10 min, 4°C, 4,000 rpm) and plasma and urine samples were stored at −20°C until analysis. Blood pressure and heart rate were measured 3 h, 35 min, and 10 min before tyramine administration, and subsequently in 15 min intervals until 6 h after. In a subgroup of eight participants, blood pressure was continuously monitored based on an analysis of pulse pressure curves using the SOMNOtouch™ NIPB non-invase system (SOMNOmedics GmbH, Randersacker, Germany). An orthostatic blood pressure test was performed 10 min before as well as 30 min and 1.5 h after tyramine intake. Pupillometry was performed 35 min prior to, and 1, 2, and 6 h after tyramine administration. Participants were asked to report on symptoms possibly related to tyramine (headache, fatigue, sleepiness, visual or hearing impairments, restlessness, nausea, dizziness, dry mouth, tremor, sensation of cold, and heart palpitation) using visual analogue scales 3 h before and 1, 3, and 6 h after tyramine intake.\n(§2) The primary endpoint was the AUC of tyramine in plasma. Secondary endpoints were the other pharmacokinetic parameters of tyramine and its metabolite 4-HPAA, as well as heart rate, blood pressure, pupil size effects, and possible adverse events (headache, fatigue, visual or hearing impairments, restlessness, nausea, dizziness, dry mouth, tremor, hypothermia, heart palpitations). In addition, the cumulative amounts of tyramine and 4-HPAA excreted in urine were measured over time periods of 3 h before (baseline) and 6 h after application."}, "healthy volunteers [6]": {"tested_on": "healthy volunteers", "settings": "in vivo", "description": "as §1, §2"}, "[7]": {"settings": "human, in vivo, po, 400 mg, t max"}, "[8]": {"settings": "human, in vivo, po, 400 mg, tmax, range"}},
  "note": "Read-outs that look alike come from different tables or passages of the source.",
  "data": [
    {"smiles": "NCCc1ccc(O)cc1", "note": "[Tyramine, tyramine]", "values": [
      {"measurement": "AUC(0-inf)", "setting": "[1]; female, human, in vivo, po, 400 mg", "result": 0.19, "unit": "µM·h"},
      {"measurement": "AUC(0-inf)", "setting": "[1]; female, human, in vivo, po, 400 mg, Mean plasma AUCinf", "result": 0.528, "unit": "µM·h"},
      {"measurement": "Baseline recovery in the urine cumulated for 3 h prior to tyramine administration", "setting": "[1]; human, in vivo", "result": "0.055 (0.007–0.222) mg"},
      {"measurement": "effect of MAO-A genotypes on tyramine pharmacokinetics or its metabolism to 4-HPAA", "setting": "[1]; human, in vivo", "result": "no significant effects"},
      {"measurement": "effect of polymorphisms in OCT1 and CYP2D6 on tyramine pharmacokinetics or pharmacodynamics", "setting": "[1]; human, in vivo", "result": "did not significantly affect"},
      {"measurement": "Baseline plasma concentration", "setting": "[1]; human, in vivo, -3 h", "result": "0.39 (0.25 & 0.53) ng/ml"},
      {"measurement": "participants with baseline plasma concentration below the limit of quantification", "setting": "[1]; human, in vivo, -3 h", "result": 98, "unit": "%"},
      {"measurement": "bioavailability", "setting": "[1]; human, in vivo, po", "result": "< 1", "unit": "%"},
      {"measurement": "AUC(0-inf)", "setting": "[1]; human, in vivo, po, 400 mg", "result": 62.3, "unit": "ng·h/mL"},
      {"measurement": "CL renal", "setting": "[1]; human, in vivo, po, 400 mg", "result": 260, "unit": "mL/min"},
      {"measurement": "Cmax", "setting": "[1]; human, in vivo, po, 400 mg", "result": 87, "unit": "ng/mL"},
      {"measurement": "half-life", "setting": "[1]; human, in vivo, po, 400 mg", "result": 55, "unit": "min"},
      {"measurement": "Tmax", "setting": "[1]; [7]", "result": 0.767, "unit": "h"},
      {"measurement": "Tmax", "setting": "[1]; [8]", "result": "0.217 to 2", "unit": "h"},
      {"measurement": "correlation of rise in systolic blood pressure with systemic tyramine concentration", "setting": "healthy volunteers [2]; 400 mg oral tyramine", "result": "correlated strongly"},
      {"measurement": "participants with blood pressure peaks by >40 mmHg above baseline", "setting": "healthy volunteers [2]; 400 mg oral tyramine", "result": "less than 10%"},
      {"measurement": "participants with increases in systolic blood pressure less than 40 mmHg", "setting": "healthy volunteers [2]; 400 mg oral tyramine", "result": 90, "unit": "%"},
      {"measurement": "tyramine concentrations at which blood pressure peaks by >40 mmHg above baseline were observed", "setting": "healthy volunteers [2]; 400 mg oral tyramine", "result": "> 60", "unit": "µg/L"},
      {"measurement": "volunteers with systolic blood pressure increased by more than 10 mmHg", "setting": "healthy volunteers [2]; 400 mg oral tyramine", "result": 71, "unit": "%"},
      {"measurement": "tyramine plasma concentration at which diastolic blood pressure increased", "setting": "healthy volunteers [2]; concentration-effect analyses", "result": "higher than 100 µg/l"},
      {"measurement": "tyramine plasma concentration at which systolic blood pressure rises", "setting": "healthy volunteers [2]; concentration-effect analyses, and above", "result": "≥ 60", "unit": "µg/L"},
      {"measurement": "time of blood pressure reaction after tyramine administration", "setting": "healthy volunteers [2]; one participant, much delayed", "result": 90, "unit": "min"},
      {"measurement": "OCT1 substrate affinity", "setting": "[3]", "result": "substrate with nanomolar affinity"},
      {"measurement": "oral tyramine dose at which the pressor response occurs", "setting": "[4]", "result": "≥ 200", "unit": "mg"},
      {"measurement": "serious adverse events", "setting": "healthy volunteers [5]; 400 mg oral tyramine, 88 healthy volunteers", "result": "no serious adverse events"},
      {"measurement": "pupil size and pupil reaction to light before and after tyramine administration", "setting": "healthy volunteers [5]; repeated pupillometric analyses", "result": "no difference"},
      {"measurement": "correlation of systemic concentration with heart palpitation", "setting": "healthy volunteers [5]; visual analogue scales, two-tailed, p < 0.001", "result": "Positive correlations"},
      {"measurement": "correlation of systemic concentration with inner restlessness", "setting": "healthy volunteers [5]; visual analogue scales, two-tailed, p = 0.02", "result": "Positive correlations"}
    ]},
    {"smiles": "CNCCc1ccc(O)cc1", "note": "[N-methyltyramine]", "values": [
      {"measurement": "Plasma and urine concentrations", "setting": "[1]; 400 mg oral tyramine, below the limit of detection", "result": "< 1", "unit": "ng/mL"}
    ]},
    {"smiles": "O=C(O)Cc1ccc(O)cc1", "note": "[4-HPAA, 4-hydroxyphenylacetic acid]", "values": [
      {"measurement": "Baseline recovery in the urine cumulated for 3 h prior to tyramine administration", "setting": "[1]; human, in vivo", "result": "2.65 (0.67–9.05) mg"},
      {"measurement": "concentration at -3 h", "setting": "[1]; human, in vivo", "result": 70, "unit": "ng/mL"},
      {"measurement": "participants with baseline plasma concentration below the limit of quantification", "setting": "[1]; human, in vivo, -3 h", "result": 84, "unit": "%"},
      {"measurement": "dose recovered in urine in form of 4-HPAA", "setting": "[1]; human, in vivo, po", "result": 76.8, "unit": "%"},
      {"measurement": "CL renal", "setting": "[1]; human, in vivo, po, 400 mg", "result": 240, "unit": "mL/min"},
      {"measurement": "Cmax", "setting": "[1]; human, in vivo, po, 400 mg", "result": 9040, "unit": "ng/mL"},
      {"measurement": "half-life", "setting": "[1]; human, in vivo, po, 400 mg", "result": 73, "unit": "min"},
      {"measurement": "variation of 4-HPAA systemic exposure (plasma AUC)", "setting": "[1]; human, in vivo, po, 400 mg", "result": "up to 3 fold"},
      {"measurement": "AUC(0-inf)", "setting": "[1]; human, in vivo, po, 400 mg, AUC inf", "result": 21600, "unit": "ng·h/mL"},
      {"measurement": "Tmax", "setting": "[1]; [7]", "result": 1.47, "unit": "h"},
      {"measurement": "Tmax", "setting": "[1]; [8]", "result": "0.483 to 2.5", "unit": "h"},
      {"measurement": "correlation of systemic concentration with dizziness", "setting": "healthy volunteers [6]", "result": "positively"},
      {"measurement": "correlation of systemic concentration with dry mouth", "setting": "healthy volunteers [6]", "result": "weakly"},
      {"measurement": "correlation of systemic concentration with headache", "setting": "healthy volunteers [6]", "result": "positively"},
      {"measurement": "correlation of systemic concentration with heart palpitation", "setting": "healthy volunteers [6]", "result": "positively"}
    ]}
  ]
}
